≈ marks a conversion by molar mass, not a printed value. Like-named read-outs stand apart in the source and are kept apart here.
Columns and labels:
[1] = tested on: P. aeruginosa (strain WC-452); experiment: 21-day serial passage resistance assay; format: cell-based, Pseudomonas aeruginosa; conditions: CAA broth, over 18 days of serial passage
Protocol: The well with the highest concentration of GN lysin in which bacterial growth was seen was then used as the inoculum for the next day's passage, and the process was repeated over a 21 day period. The MIC at each daily time-point was recorded, and resistance was measured as a step-wise increase in MIC.

P. aeruginosa = experiment: MIC by modified CLSI broth microdilution in CAA media, CAA with human serum or with Survanta; format: cell-based; conditions: Pseudomonas aeruginosa
From the text: 2015. […] Clinical and Laboratory Standards Institute, Wayne, Pa.

[2] = tested on: carbapenem-resistant P. aeruginosa strains; experiment: microbe, parasite or virus in culture; format: cell-based, Pseudomonas aeruginosa; conditions: for MIC: Pseudomonas aeruginosa; for MIC Combination / MIC Alone: vs. WC-452
Protocol: Such resensitization may be determined by combining the present lysins or lysin-AMP polypeptide constructs with an antibiotic in a checkerboard assay as described herein. Antibiotic-resistant bacteria, such as carbapenem-resistant P. aeruginosa, are added to the lysin or lysin-AMP polypeptide construct combination. […] See Clinical and Laboratory Standards Institute (CLSI), CLSI. […] M100 Performance Standards for Antimicrobial Susceptibility Testing; 29th Edition. Clinical and Laboratory Standards Institute, Wayne, Pa., which is herein incorporated by reference in its entirety.
Up to seven carbapenem-resistant isolates were assessed. […] See Clinical and Laboratory Standards Institute (CLSI), CLSI. […] M100 Performance Standards for Antimicrobial Susceptibility Testing; 29th Edition. Clinical and Laboratory Standards Institute, Wayne, Pa.

Question: How did the “increase of MIC during serial passage” value [1] turn out when `O=C(O)c1cn(C2CC2)c2cc(N3CCNCC3)c(F)cc2c1=O` [Ciprofloxacin] was run?
Answer: 16 fold

Question: With `C[C@@H](O)[C@H]1C(=O)N2C(C(=O)O)=C(S[C@@H]3CN[C@H](C(=O)N(C)C)C3)[C@H](C)[C@H]12` [Meropenem, meropenem] as the molecule, how does the MIC (P. aeruginosa; ATCC17646, read-out: Meropenem MIC (μg/mL), strain CFS 1109 (ATCC 17646)) read?
Answer: 0.5 µg/mL (≈ 1.3 µM)

Question: And the MIC (P. aeruginosa; ATCC27853, read-out: Meropenem MIC (μg/mL), strain CFS 1766 (ATCC 27853))?
Answer: 1 µg/mL (≈ 2.61 µM)

Question: What about the MIC (P. aeruginosa; PA1, read-out: Meropenem MIC (μg/mL), strain CFS 1539 (PA1)) of the same molecule?
Answer: 16 µg/mL (≈ 41.7 µM)

Question: What about the MIC (P. aeruginosa; read-out: Meropenem MIC (μg/mL), […]) of the same molecule?
Answer: > 32 µg/mL

Question: And the MIC (P. aeruginosa; read-out: Meropenem MIC (μg/mL), strain CFS 1541 (PA3))?
Answer: 8 µg/mL (≈ 20.9 µM)

Question: What about the MIC (P. aeruginosa; read-out: Meropenem MIC (μg/mL), strain CFS 1596 (PA26)) of the same molecule?
Answer: 0.5 µg/mL (≈ 1.3 µM)

Question: And the MIC (P. aeruginosa; read-out: Meropenem MIC (μg/mL), strain CFS 1597 (PA27))?
Answer: 1 µg/mL (≈ 2.61 µM)

Question: And the MIC (P. aeruginosa; read-out: Meropenem MIC (μg/mL), strain CFS 1669 (PA41))?
Answer: < 0.25 µg/mL

Question: What about the MIC (P. aeruginosa; read-out: Meropenem MIC (μg/mL), strain CFS 1674 (PA46)) of the same molecule?
Answer: 4 µg/mL (≈ 10.4 µM)

Question: And the MIC (P. aeruginosa; read-out: Meropenem MIC (μg/mL), strain CFS 1675 (PA47))?
Answer: 4 µg/mL (≈ 10.4 µM)

Question: What about the MIC ([2]; GN121, read-out: MIC (μg/mL) Alone, isolate PA19, checkerboard Meropenem + GN121) of the same molecule?
Answer: 32 µg/mL

Question: And the MIC ([2]; GN121, read-out: MIC (μg/mL) Alone, isolate PA20, checkerboard Meropenem + GN121)?
Answer: 16 µg/mL

Question: What about the MIC ([2]; GN121, read-out: MIC (μg/mL) Alone, isolate PA21, checkerboard Meropenem + GN121) of the same molecule?
Answer: 32 µg/mL

Question: What about the MIC ([2]; GN121, read-out: MIC (μg/mL) Alone, isolate PA22, checkerboard Meropenem + GN121) of the same molecule?
Answer: 16 µg/mL

Question: And the MIC ([2]; GN121, read-out: MIC (μg/mL) Alone, isolate PA23, checkerboard Meropenem + GN121)?
Answer: 16 µg/mL

Question: What about the MIC ([2]; GN121, read-out: MIC (μg/mL) Alone, isolate PA24, checkerboard Meropenem + GN121) of the same molecule?
Answer: 32 µg/mL

Question: And the MIC ([2]; GN121, read-out: MIC (μg/mL) Alone, isolate WC-452, checkerboard Meropenem + GN121)?
Answer: 16 µg/mL

Question: And the MIC ([2]; GN123, read-out: MIC (μg/mL) Alone, isolate PA19, checkerboard MEROPENEM + GN123)?
Answer: 32 µg/mL

Question: And the MIC ([2]; GN123, read-out: MIC (μg/mL) Alone, isolate PA20, checkerboard MEROPENEM + GN123)?
Answer: 16 µg/mL

Question: What about the MIC ([2]; GN123, read-out: MIC (μg/mL) Alone, isolate PA21, checkerboard MEROPENEM + GN123) of the same molecule?
Answer: 32 µg/mL

Question: And the MIC ([2]; GN123, read-out: MIC (μg/mL) Alone, isolate PA22, checkerboard MEROPENEM + GN123)?
Answer: 16 µg/mL

Question: And the MIC ([2]; GN123, read-out: MIC (μg/mL) Alone, isolate PA23, checkerboard MEROPENEM + GN123)?
Answer: 16 µg/mL

Question: What about the MIC ([2]; GN123, read-out: MIC (μg/mL) Alone, isolate PA24, checkerboard MEROPENEM + GN123) of the same molecule?
Answer: 32 µg/mL

Question: And the MIC ([2]; GN123, read-out: MIC (μg/mL) Alone, isolate WC-452, checkerboard MEROPENEM + GN123)?
Answer: 16 µg/mL

Question: And the “susceptibility category of the isolate, carbapenem Alone” value ([2]; isolate PA19)?
Answer: (R) ((R) = resistant)

Question: And the “MIC (μg/mL) Combination” value ([2]; isolate PA19, MEROPENEM combined with GN123)?
Answer: 0.5 µg/mL

Question: What about the “MIC (μg/mL) Combination” value ([2]; isolate PA19, Meropenem combined with GN121) of the same molecule?
Answer: 1 µg/mL

Question: What about the “susceptibility category of the isolate, carbapenem in Combination” value (“susceptibility category … in Combination” for short) ([2]; isolate PA19, combined with GN123) of the same molecule?
Answer: (S) ((S) = sensitive)

Question: What about the “susceptibility category of the isolate, carbapenem Alone” value ([2]; isolate PA20) of the same molecule?
Answer: (R) ((R) = resistant)

Question: What about the “MIC (μg/mL) Combination” value ([2]; isolate PA20, MEROPENEM combined with GN123) of the same molecule?
Answer: 0.5 µg/mL

Question: What about the “MIC (μg/mL) Combination” value ([2]; isolate PA20, Meropenem combined with GN121) of the same molecule?
Answer: 1 µg/mL

Question: What about the “susceptibility category … in Combination” value ([2]; isolate PA20, combined with GN123) of the same molecule?
Answer: (S) ((S) = sensitive)

Question: What about the “susceptibility category of the isolate, carbapenem Alone” value ([2]; isolate PA21) of the same molecule?
Answer: (R) ((R) = resistant)

Question: And the “MIC (μg/mL) Combination” value ([2]; isolate PA21, MEROPENEM combined with GN123)?
Answer: 1 µg/mL

Question: And the “MIC (μg/mL) Combination” value ([2]; isolate PA21, Meropenem combined with GN121)?
Answer: 2 µg/mL

Question: What about the “susceptibility category … in Combination” value ([2]; isolate PA21, combined with GN123) of the same molecule?
Answer: (S) ((S) = sensitive)

Question: What about the “susceptibility category of the isolate, carbapenem Alone” value ([2]; isolate PA22) of the same molecule?
Answer: (R) ((R) = resistant)

Question: And the “MIC (μg/mL) Combination” value ([2]; isolate PA22, MEROPENEM combined with GN123)?
Answer: 1 µg/mL

Question: And the “MIC (μg/mL) Combination” value ([2]; isolate PA22, Meropenem combined with GN121)?
Answer: 1 µg/mL

Question: What about the “susceptibility category … in Combination” value ([2]; isolate PA22, combined with GN123) of the same molecule?
Answer: (S) ((S) = sensitive)

Question: What about the “susceptibility category of the isolate, carbapenem Alone” value ([2]; isolate PA23) of the same molecule?
Answer: (R) ((R) = resistant)

Question: What about the “MIC (μg/mL) Combination” value ([2]; isolate PA23, MEROPENEM combined with GN123) of the same molecule?
Answer: 0.5 µg/mL

Question: What about the “MIC (μg/mL) Combination” value ([2]; isolate PA23, Meropenem combined with GN121) of the same molecule?
Answer: 2 µg/mL

Question: And the “susceptibility category … in Combination” value ([2]; isolate PA23, combined with GN123)?
Answer: (S) ((S) = sensitive)

Question: What about the “susceptibility category of the isolate, carbapenem Alone” value ([2]; isolate PA24) of the same molecule?
Answer: (R) ((R) = resistant)

Question: And the “MIC (μg/mL) Combination” value ([2]; isolate PA24, MEROPENEM combined with GN123)?
Answer: 2 µg/mL

Question: And the “MIC (μg/mL) Combination” value ([2]; isolate PA24, Meropenem combined with GN121)?
Answer: 1 µg/mL

Question: And the “susceptibility category … in Combination” value ([2]; isolate PA24, combined with GN123)?
Answer: (S) ((S) = sensitive)

Question: And the “susceptibility category of the isolate, carbapenem Alone” value ([2]; isolate WC-452)?
Answer: (R) ((R) = resistant)

Question: What about the “MIC (μg/mL) Combination” value ([2]; isolate WC-452, MEROPENEM combined with GN123) of the same molecule?
Answer: 1 µg/mL

Question: What about the “MIC (μg/mL) Combination” value ([2]; isolate WC-452, Meropenem combined with GN121) of the same molecule?
Answer: 1 µg/mL

Question: And the “susceptibility category … in Combination” value ([2]; isolate WC-452, combined with GN123)?
Answer: (S) ((S) = sensitive)

Question: What about the “susceptibility category … in Combination” value ([2]; isolate WC-452, combined with GN351) of the same molecule?
Answer: (S) ((S) = sensitive)

Question: And the “susceptibility category … in Combination” value ([2]; isolate WC-452, combined with GN370)?
Answer: (S) ((S) = sensitive)

Question: And the “susceptibility category … in Combination” value ([2]; isolate WC-452, combined with GN428)?
Answer: (S) ((S) = sensitive)

Question: And the MIC Combination ([2]; MEM combined with GN351)?
Answer: 1 µg/mL

Question: What about the MIC Combination ([2]; MEM combined with GN370) of the same molecule?
Answer: 0.5 µg/mL

Question: What about the MIC Combination ([2]; MEM combined with GN428) of the same molecule?
Answer: 1 µg/mL

Question: What about the MIC Alone ([2]; checkerboard MEM + GN351) of the same molecule?
Answer: 16 µg/mL

Question: What about the MIC Alone ([2]; checkerboard MEM + GN428) of the same molecule?
Answer: 16 µg/mL

— patent US20210147498A1, “USE OF GRAM-NEGATIVE LYSIN-ANTIMICROBIAL PEPTIDE (AMP) POLYPEPTIDE CONSTRUCTS IN PULMONARY SURFACTANT AND BIOFILMS” (priority 2018, published 2021)
